# Laboratory results taken from patent US8012979B2, “Compounds and their uses 707” (AstraZeneca AB, priority 2007, dated 2011).
# Molecular target: T1, human active recombinant p38α-6His tagged (Homo sapiens, UniProt Q16539)
# T1 construct: 6His
# Assay: p38 Alpha Enzyme Assay (AlphaScreen, biotinylated-ATF2 substrate)
# Assay type: biochemical
# Details: pre-incubated 4 hours at 37° C., reaction initiated with ATP; 0.5 nM enzyme; read-out: p38 pIC50 (converted)
# T1 sequence (Q16539 whole entry): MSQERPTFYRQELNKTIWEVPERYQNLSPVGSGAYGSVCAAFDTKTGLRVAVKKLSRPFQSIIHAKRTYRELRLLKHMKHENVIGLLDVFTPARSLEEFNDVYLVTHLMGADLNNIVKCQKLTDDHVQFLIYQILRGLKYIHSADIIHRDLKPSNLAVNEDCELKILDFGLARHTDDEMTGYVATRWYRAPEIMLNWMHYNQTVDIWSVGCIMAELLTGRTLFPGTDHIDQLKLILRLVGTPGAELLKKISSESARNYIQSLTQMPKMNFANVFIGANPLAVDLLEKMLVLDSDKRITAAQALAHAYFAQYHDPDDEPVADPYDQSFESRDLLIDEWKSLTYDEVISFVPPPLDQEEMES
row,Structure (SMILES),IC50 [nM]
1,"CCN1CCC(CNCc2cn(CC3CC3)c(=O)c3ccc(-c4cc(C(=O)NC5CC5)cc(F)c4C)cc23)CC1 [Example 91, N-Cyclopropyl-3-(2-(cyclopropylmethyl)-4-(((1-ethylpiperidin-4-yl)methylamino)methyl)-1-oxo-1,2-dihydroisoquinolin-6-yl)-5-fluoro-4-methylbenzamide]",7.94
2,"Cc1c(F)cc(C(=O)NC2CC2)cc1-c1ccc2c(=O)n(CC3CC3)cc(CN3CCCNCC3)c2c1 [Example 92, 3-(4-((1,4-Diazepan-1-yl)methyl)-2-(cyclopropylmethyl)-1-oxo-1,2-dihydroisoquinolin-6-yl)-N-cyclopropyl-5-fluoro-4-methylbenzamide]",0.1
3,"Cc1c(F)cc(C(=O)NC2CC2)cc1-c1ccc2c(=O)n(CC3CC3)cc(CN3CCN[C@H](CO)C3)c2c1 [Example 102, (S)—N-Cyclopropyl-3-(2-(cyclopropylmethyl)-4-((3-(hydroxymethyl)piperazin-1-yl)methyl)-1-oxo-1,2-dihydroisoquinolin-6-yl)-5-fluoro-4-methylbenzamide]",0.0501
4,"CN[C@@H]1CCN(Cc2cn(CC3CC3)c(=O)c3ccc(-c4cc(C(=O)NC5CC5)cc(F)c4C)cc23)C1 [Example 106, (R)—N-Cyclopropyl-3-(2-(cyclopropylmethyl)-4-((3-(methylamino)pyrrolidin-1-yl)methyl)-1-oxo-1,2-dihydroisoquinolin-6-yl)-5-fluoro-4-methylbenzamide]",0.316
5,"Cc1c(F)cc(C(=O)NC2CC2)cc1-c1ccc2c(=O)n(CC3CC3)cc(CN3CCN[C@H](C)C3)c2c1 [Example 107, (R)—N-Cyclopropyl-3-(2-(cyclopropylmethyl)-4-((3-methylpiperazin-1-yl)methyl)-1-oxo-1,2-dihydroisoquinolin-6-yl)-5-fluoro-4-methylbenzamide]",0.794
6,"Cc1c(F)cc(C(=O)NC2CC2)cc1-c1ccc2c(=O)n(CC3CC3)cc(CN3CCNC[C@H]3CO)c2c1 [Example 108, (S)—N-Cyclopropyl-3-(2-(cyclopropylmethyl)-4-((2-(hydroxymethyl)piperazin-1-yl)methyl)-1-oxo-1,2-dihydroisoquinolin-6-yl)-5-fluoro-4-methylbenzamide]",0.0631
7,"Cc1c(F)cc(C(=O)NC2CC2)cc1-c1ccc2c(=O)n(CC3CC3)cc(CN3CC[C@@H](N)C3)c2c1 [Example 109, (R)-3-(4-((3-Aminopyrrolidin-1-yl)methyl)-2-(cyclopropylmethyl)-1-oxo-1,2-dihydroisoquinolin-6-yl)-N-cyclopropyl-5-fluoro-4-methylbenzamide]",1.58
8,"Cc1c(F)cc(C(=O)NC2CC2)cc1-c1ccc2c(=O)n(CC3CC3)cc(CN[C@@H]3CCNC3)c2c1 [Example 110, (R)—N-Cyclopropyl-3-(2-(cyclopropylmethyl)-1-oxo-4-((pyrrolidin-3-ylamino)methyl)-1,2-dihydroisoquinolin-6-yl)-5-fluoro-4-methylbenzamide]",1
9,"Cc1c(F)cc(C(=O)NC2CC2)cc1-c1ccc2c(=O)n(CC3CC3)cc(CN3C[C@@H]4C[C@H]3CN4)c2c1 [Example 111, 3-(4-((1S,4S)-2,5-Diazabicyclo[2.2.1]heptan-2-ylmethyl)-2-(cyclopropylmethyl)-1-oxo-1,2-dihydroisoquinolin-6-yl)-N-cyclopropyl-5-fluoro-4-methylbenzamide]",0.1
10,"CC[C@H]1CN(Cc2cn(CC3CC3)c(=O)c3ccc(-c4cc(C(=O)NC5CC5)cc(F)c4C)cc23)CCN1 [Example 116, (S)—N-Cyclopropyl-3-(2-(cyclopropylmethyl)-4-((3-ethylpiperazin-1-yl)methyl)-1-oxo-1,2-dihydroisoquinolin-6-yl)-5-fluoro-4-methylbenzamide]",0.501
11,"Cc1c(F)cc(C(=O)NC2CC2)cc1-c1ccc2c(=O)n(CC3CC3)cc(CN3CCN[C@@H](CCO)C3)c2c1 [Example 117, (S)—N-Cyclopropyl-3-(2-(cyclopropylmethyl)-4-((3-(2-hydroxyethyl)piperazin-1-yl)methyl)-1-oxo-1,2-dihydroisoquinolin-6-yl)-5-fluoro-4-methylbenzamide]",0.158
12,"Cc1c(F)cc(C(=O)NC2CC2)cc1-c1ccc2c(=O)n(CC3CC3)cc(CN3C[C@@H](N)C[C@@H]3CO)c2c1 [Example 119, 3-(4-(((2R,4S)-4-Amino-2-(hydroxymethyl)pyrrolidin-1-yl)methyl)-2-(cyclopropylmethyl)-1-oxo-1,2-dihydroisoquinolin-6-yl)-N-cyclopropyl-5-fluoro-4-methylbenzamide]",0.398

# More lines, now with the values ahead:
row,IC50 [nM],Structure (SMILES)
1,2,"Cc1ccc(C(=O)NC2CC2)cc1-c1ccc2c(=O)n(Cc3cccc(OCCCN(C)C)c3)cc(C)c2c1 [Example 93, N-Cyclopropyl-3-(2-(3-(3-(dimethylamino)propoxy)benzyl)-4-methyl-1-oxo-1,2-dihydroisoquinolin-6-yl)-4-methylbenzamide]"
2,3.16,"Cc1ccc(C(=O)NC2CC2)cc1-c1ccc2c(=O)n(Cc3cccc(OCCCN(C)C)c3)c(C)cc2c1 [Example 94, N-Cyclopropyl-3-(2-(3-(3-(dimethylamino)propoxy)benzyl)-3-methyl-1-oxo-1,2-dihydroisoquinolin-6-yl)-4-methylbenzamide]"
3,2.51,"Cc1ccc(C(=O)NC2CC2)cc1-c1ccc2c(=O)n(Cc3ccc(CN(C)C)cc3)cc(C)c2c1 [Example 95, N-Cyclopropyl-3-(2-(4-((dimethylamino)methyl)benzyl)-4-methyl-1-oxo-1,2-dihydroisoquinolin-6-yl)-4-methylbenzamide]"
4,10,"Cc1ccc(C(=O)NC2CC2)cc1-c1ccc2c(=O)n(Cc3ccc(CN(C)C)cc3)c(C)cc2c1 [Example 96, N-Cyclopropyl-3-(2-(4-((dimethylamino)methyl)benzyl)-3-methyl-1-oxo-1,2-dihydroisoquinolin-6-yl)-4-methylbenzamide]"
5,0.251,"Cc1ccc(C(=O)NC2CC2)cc1-c1ccc2c(=O)n(Cc3ccc(C4CCNCC4)cc3)cc(C)c2c1 [Example 97, N-Cyclopropyl-4-methyl-3-(4-methyl-1-oxo-2-(4-(piperidin-4-yl)benzyl)-1,2-dihydroisoquinolin-6-yl)benzamide]"
6,2.51,"Cc1ccc(C(=O)NC2CC2)cc1-c1ccc2c(=O)n(Cc3ccc(C4CCNCC4)cc3)c(C)cc2c1 [Example 98, N-Cyclopropyl-4-methyl-3-(3-methyl-1-oxo-2-(4-(piperidin-4-yl)benzyl)-1,2-dihydroisoquinolin-6-yl)benzamide]"
7,0.398,"Cc1ccc(C(=O)NC2CC2)cc1-c1ccc2c(=O)n(Cc3ccccc3)cc(CCCN(C)C)c2c1 [Example 99, 3-(2-Benzyl-4-(3-(dimethylamino)propyl)-1-oxo-1,2-dihydroisoquinolin-6-yl)-N-cyclopropyl-4-methylbenzamide]"
8,1,"Cc1ccc(C(=O)NC2CC2)cc1-c1ccc2c(=O)n(Cc3ccccc3)cc(CCCN3CCCC3)c2c1 [Example 100, 3-(2-Benzyl-1-oxo-4-(3-(pyrrolidin-1-yl)propyl)-1,2-dihydroisoquinolin-6-yl)-N-cyclopropyl-4-methylbenzamide]"
9,3.16,"Cc1ccc(C(=O)NC2CC2)cc1-c1ccc2c(=O)n(CC3CC3)cc(COCCN(C)C)c2c1 [Example 101, N-Cyclopropyl-3-(2-(cyclopropylmethyl)-4-((2-(dimethylamino)ethoxy)methyl)-1-oxo-1,2-dihydroisoquinolin-6-yl)-4-methylbenzamide]"
10,0.126,"Cc1ccc(C(=O)NC2CC2)cc1-c1ccc2c(=O)n(Cc3ccc(S(C)(=O)=O)cc3)cc(CN3CCCN(C)CC3)c2c1 [Example 103, N-Cyclopropyl-4-methyl-3-(4-((4-methyl-1,4-diazepan-1-yl)methyl)-2-(4-(methylsulfonyl)benzyl)-1-oxo-1,2-dihydroisoquinolin-6-yl)benzamide]"
11,0.2,"Cc1ccc(C(=O)NC2CC2)cc1-c1ccc2c(=O)n(Cc3ccc(C(=O)O)cc3)cc(CN3CCCN(C)CC3)c2c1 [Example 104, 4-((6-(5-(Cyclopropylcarbamoyl)-2-methylphenyl)-((4-methyl-1,4-diazepan-1-yl)methyl)-1-oxoisoquinolin-2(1H)-yl)methyl)benzoic acid]"
12,0.158,"Cc1ccc(C(=O)NC2CC2)cc1-c1ccc2c(=O)n(Cc3ccc(C(=O)N(C)C)cc3)cc(CN3CCCN(C)CC3)c2c1 [Example 105, N-Cyclopropyl-3-(2-(4-(dimethylcarbamoyl)benzyl)-4-((4-methyl-1,4-diazepan-1-yl)methyl)-1-oxo-1,2-dihydroisoquinolin-6-yl)-4-methylbenzamide]"
13,0.126,"Cc1c(F)cc(C(=O)NC2CC2)cc1-c1ccc2c(=O)n(Cc3ccc(S(C)(=O)=O)cc3)cc(CN3CCN(C)CC3)c2c1 [Example 112, N-Cyclopropyl-3-fluoro-4-methyl-5-(4-((4-methylpiperazin-1-yl)methyl)-2-(4-(methylsulfonyl)benzyl)-1-oxo-1,2-dihydroisoquinolin-6-yl)benzamide]"
14,0.0794,"Cc1c(F)cc(C(=O)NC2CC2)cc1-c1ccc2c(=O)n(Cc3ccc(S(C)(=O)=O)cc3)cc(CN3CCN[C@@H](CO)C3)c2c1 [Example 113, (R)—N-Cyclopropyl-3-fluoro-5-(4-((3-(hydroxymethyl)piperazin-1-yl)methyl)-2-(4-(methylsulfonyl)benzyl)-1-oxo-1,2-dihydroisoquinolin-6-yl)-4-methylbenzamide]"
15,0.251,"Cc1ccc(C(=O)NC2CC2)cc1-c1ccc2c(=O)n(Cc3ccc(C(=O)NS(C)(=O)=O)cc3)cc(CN3CCCN(C)CC3)c2c1 [Example 114, N-Cyclopropyl-4-methyl-3-(4-((4-methyl-1,4-diazepan-1-yl)methyl)-2-(4-(methylsulfonylcarbamoyl)benzyl)-1-oxo-1,2-dihydroisoquinolin-6-yl)benzamide]"
16,0.1,Cc1c(F)cc(C(=O)NC2CC2)cc1-c1ccc2c(=O)n(Cc3ccc(S(C)(=O)=O)cc3)cc(CN3CCN(C)[C@@H](CO)C3)c2c1 [Example 115]
17,0.251,"Cc1c(F)cc(C(=O)NC2CC2)cc1-c1ccc2c(=O)n(CC3CC3)cc(CN3CCNC[C@@H]3C)c2c1 [Example 118, (S)—N-Cyclopropyl-3-(2-(cyclopropylmethyl)-4-((2-methylpiperazin-1-yl)methyl)-1-oxo-1,2-dihydroisoquinolin-6-yl)-5-fluoro-4-methylbenzamide]"
